Assay results published in ChEMBL document CHEMBL1135541, “Synthesis, biological properties, and molecular modeling investigation of the first potent, selective, and water-soluble human A(3) adenosine receptor antagonist” (J Med Chem, 2002).

Tests used:
Adenosine receptor A2a = Adenosine receptor A2a (Rattus norvegicus, UniProt P30543); assay: Binding affinity against rat adenosine A2A receptor […]; format: cell-based
Adenosine receptor A1 = target: T1, Adenosine receptor A1 (Rattus norvegicus, UniProt P25099); assay: Binding affinity against rat adenosine A1 receptor […]; format: cell-based
T1 sequence (P25099 whole entry): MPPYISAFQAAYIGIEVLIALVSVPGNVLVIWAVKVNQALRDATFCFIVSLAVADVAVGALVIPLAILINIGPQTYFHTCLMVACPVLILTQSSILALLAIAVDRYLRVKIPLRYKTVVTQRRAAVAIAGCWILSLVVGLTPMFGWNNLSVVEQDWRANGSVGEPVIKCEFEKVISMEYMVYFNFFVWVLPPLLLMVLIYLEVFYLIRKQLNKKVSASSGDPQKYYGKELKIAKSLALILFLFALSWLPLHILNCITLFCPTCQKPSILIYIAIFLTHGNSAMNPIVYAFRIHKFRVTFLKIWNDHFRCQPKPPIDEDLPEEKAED

Adenosine receptor A3 [1] = target: T2, Adenosine receptor A3 (Rattus norvegicus, UniProt P28647); assay: Binding affinity against rat adenosine A3 receptor in RBL-2H3 cells; format: cell-based
T2 sequence (P28647 whole entry): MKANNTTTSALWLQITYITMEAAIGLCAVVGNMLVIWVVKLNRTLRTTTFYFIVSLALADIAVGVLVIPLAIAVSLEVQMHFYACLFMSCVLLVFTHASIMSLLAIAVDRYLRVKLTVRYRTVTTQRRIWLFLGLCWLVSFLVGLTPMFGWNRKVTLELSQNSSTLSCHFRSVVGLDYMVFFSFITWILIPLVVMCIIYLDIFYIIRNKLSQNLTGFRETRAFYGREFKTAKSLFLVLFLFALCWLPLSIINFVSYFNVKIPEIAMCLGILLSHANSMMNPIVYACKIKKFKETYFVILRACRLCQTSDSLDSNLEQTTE

[2] = target: T3, Adenosine receptor A3 (Rattus norvegicus) (UniProt P28647); conditions: RBL-2H3, 1 uM
T3 sequence (whole entry): T2 sequence (P28647 whole entry)
Description: Inhibitory activity against binding of [125I]I-AB-MECA to Adenosine A3 receptor in membranes of rat basophilic RBL-2H3 cells at 1 uM

[3] = target: T4, Adenosine receptor A3 (Homo sapiens) (UniProt P0DMS8); conditions: CHO
T4 sequence (whole entry): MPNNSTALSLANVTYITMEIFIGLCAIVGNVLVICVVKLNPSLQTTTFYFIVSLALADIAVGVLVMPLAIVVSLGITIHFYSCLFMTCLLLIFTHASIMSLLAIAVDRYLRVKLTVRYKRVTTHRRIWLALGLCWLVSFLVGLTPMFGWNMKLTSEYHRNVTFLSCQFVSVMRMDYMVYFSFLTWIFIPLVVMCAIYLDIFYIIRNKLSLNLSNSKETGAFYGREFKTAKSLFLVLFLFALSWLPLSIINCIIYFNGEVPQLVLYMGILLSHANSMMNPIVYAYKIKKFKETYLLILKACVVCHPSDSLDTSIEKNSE
Description: Antagonistic activity against Cl-IB-MECA26-induced inhibition of forskolin-stimulated cAMP in CHO cells expressing human Adenosine A3 receptor

[4] = The hydrophobicity was measured in reverse-phase TLC experiments and reported as Rm values; Rm = log(1/Rf - 1)
[5] = target: Adenosine receptors; A2b & A3 (Homo sapiens) (UniProt P29275+P0DMS8); assay: Selectivity as ratio of Ki for human A2b and A3 receptors; format: protein assay
[6] = target: Adenosine receptors; A1 & A3 (Homo sapiens) (UniProt P30542+P0DMS8); assay: Selectivity as ratio of Ki for human adenosine A1 and A3 receptors; format: protein assay
[7] = target: Adenosine receptors; A2a & A3 (Homo sapiens) (UniProt P0DMS8+P29274); assay: Selectivity as ratio of Ki for human adenosine A2A and A3 receptors; format: protein assay
Adenosine receptor A3 [8] = target: T5, Adenosine receptor A3 (Homo sapiens, UniProt P0DMS8); assay: Inhibitory activity against Human Adenosine A3 receptor expressed in CHO cells; format: cell-based
T5 sequence (P0DMS8 whole entry): T4 sequence (whole entry)

Adenosine receptors; A2a & A3 (Homo sapiens), sequence (P29274 whole entry, looked up, one chain of several): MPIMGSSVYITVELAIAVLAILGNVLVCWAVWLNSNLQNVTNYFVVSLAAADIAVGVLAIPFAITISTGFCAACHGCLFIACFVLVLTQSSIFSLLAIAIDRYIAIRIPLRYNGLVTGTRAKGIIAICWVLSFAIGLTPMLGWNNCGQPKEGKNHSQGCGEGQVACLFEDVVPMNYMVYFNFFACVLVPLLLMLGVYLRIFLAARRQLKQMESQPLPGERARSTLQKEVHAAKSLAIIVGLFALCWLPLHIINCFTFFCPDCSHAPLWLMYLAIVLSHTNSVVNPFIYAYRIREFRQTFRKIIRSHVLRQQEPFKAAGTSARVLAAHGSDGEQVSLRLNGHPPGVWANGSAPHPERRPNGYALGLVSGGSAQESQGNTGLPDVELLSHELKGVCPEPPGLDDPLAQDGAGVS
Adenosine receptor A2a, sequence (P30543 whole entry): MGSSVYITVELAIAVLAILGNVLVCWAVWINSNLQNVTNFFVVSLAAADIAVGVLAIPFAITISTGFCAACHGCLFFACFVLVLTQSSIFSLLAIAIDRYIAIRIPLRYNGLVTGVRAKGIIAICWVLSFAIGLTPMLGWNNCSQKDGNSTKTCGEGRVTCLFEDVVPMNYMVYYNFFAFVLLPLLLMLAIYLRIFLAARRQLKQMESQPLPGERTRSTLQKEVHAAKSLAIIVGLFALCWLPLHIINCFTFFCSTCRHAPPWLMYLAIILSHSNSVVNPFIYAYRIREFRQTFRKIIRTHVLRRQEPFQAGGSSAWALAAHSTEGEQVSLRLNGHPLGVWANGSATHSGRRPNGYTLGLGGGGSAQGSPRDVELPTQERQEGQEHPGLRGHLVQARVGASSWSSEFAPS

| Ki (Adenosine receptor A2a) [nM] | Ki (Adenosine receptor A1) [nM] | Ki (Adenosine receptor A3 [1]) [nM] | inhibition [2] [%] | K B [3] [nM] | Rm [4] | Selectivity [5] | Selectivity [6] | Selectivity [7] | IC50 (Adenosine receptor A3 [8]) [nM] | Compound |
| --- | --- | --- | --- | --- | --- | --- | --- | --- | --- | --- |
| 97.6 | 226 | > 1000 | 35 | 0.2 | 3.06 | – | – | – | – | Cn1cc2c(nc(NC(=O)Nc3ccncc3)n3nc(-c4ccco4)nc23)n1 |
| – | – | – | – | – | – | > 400 | > 400 | 24 | – | Cn1cc2c(nc(NC(=O)Nc3ccc(S(=O)(=O)O)cc3)n3nc(-c4ccco4)nc23)n1 |
| – | – | – | – | – | – | 1390 | 3710 | 2380 | 2.1 | Cn1cc2c(nc(NC(=O)Nc3ccccc3)n3nc(-c4ccco4)nc23)n1 |
